{"source": "patent US5112807A", "about": "“Compound \"Leualacin\", its preparation and its use in the treatment of cardiovascular disorders” (Sankyo Company, Limited, priority 1988, dated 1992)", "key": {"tenia caecum": {"system": "tenia caecum", "assay": "Calcium antagonizing action in the tenia caecum", "assay_type": "cell-based, guinea pigs", "conditions": "30 minutes incubation, calcium chloride-induced contraction", "protocol": "The calcium antagonizing activity in the tenia caecum was measured according to the method of M. Spedding [Naunyn-Schmiedeberg's Arch. Pharmacol. 318, 234-240(1982)]. Male guinea pigs weighing 250 to 300 g were laparotomized under pentobarbital anesthesia and the tenia was immediately removed from the caecum. The tenia was cut into strips of 6-7 cm length and suspended in a Magnus vessel filled with 20 ml of Tyrode's solution without calcium aerated with a mixed gas (O2 95%-CO2 5% by volume). After the specimen had eguilibrated by standing for 1 hour under the above conditions, 0.2 ml each of 30, 100 and 300 mM aqueous calcium chloride solutions were cumulatively added at 3 minute intervals and the contraction of the specimen was measured. After the measurements, the specimen was washed twice with Tyrode's solution without calcium and left for 30 minutes. The specimen was then incubated with Leualacin for 30 minutes, after which 0.2 ml each of 30, 100 and 300 mM calcium chloride solutions were cumulatively added at 3 minute intervals in the same manner as above, and the contraction was again measured. The contraction after the treatment with the Leualacin solution was deducted from that after the treatment with the calcium chloride solution alone and the value obtained was divided by the contraction after the treatment with the calcium chloride solution alone, to give the antagonizing rate."}, "[1]": {"assay": "Chemical and physical properties: description and solubility", "assay_type": "physicochemical", "source_text": "Leualacin has the molecular structure shown above and the following chemical and physical properties: […]"}, "[2]": {"target": "T1, calcium channel (3H-nitrendipine binding to microsome fraction prepared from porcine heart) (Sus scrofa, UniProt A0A8W4FNC0)", "T1 construct": "15 to 20 μg of a microsome fraction prepared from porcine heart; from tissue; host or cells: porcine heart microsome fraction", "T1 sequence (A0A8W4FNC0 1-2067)": "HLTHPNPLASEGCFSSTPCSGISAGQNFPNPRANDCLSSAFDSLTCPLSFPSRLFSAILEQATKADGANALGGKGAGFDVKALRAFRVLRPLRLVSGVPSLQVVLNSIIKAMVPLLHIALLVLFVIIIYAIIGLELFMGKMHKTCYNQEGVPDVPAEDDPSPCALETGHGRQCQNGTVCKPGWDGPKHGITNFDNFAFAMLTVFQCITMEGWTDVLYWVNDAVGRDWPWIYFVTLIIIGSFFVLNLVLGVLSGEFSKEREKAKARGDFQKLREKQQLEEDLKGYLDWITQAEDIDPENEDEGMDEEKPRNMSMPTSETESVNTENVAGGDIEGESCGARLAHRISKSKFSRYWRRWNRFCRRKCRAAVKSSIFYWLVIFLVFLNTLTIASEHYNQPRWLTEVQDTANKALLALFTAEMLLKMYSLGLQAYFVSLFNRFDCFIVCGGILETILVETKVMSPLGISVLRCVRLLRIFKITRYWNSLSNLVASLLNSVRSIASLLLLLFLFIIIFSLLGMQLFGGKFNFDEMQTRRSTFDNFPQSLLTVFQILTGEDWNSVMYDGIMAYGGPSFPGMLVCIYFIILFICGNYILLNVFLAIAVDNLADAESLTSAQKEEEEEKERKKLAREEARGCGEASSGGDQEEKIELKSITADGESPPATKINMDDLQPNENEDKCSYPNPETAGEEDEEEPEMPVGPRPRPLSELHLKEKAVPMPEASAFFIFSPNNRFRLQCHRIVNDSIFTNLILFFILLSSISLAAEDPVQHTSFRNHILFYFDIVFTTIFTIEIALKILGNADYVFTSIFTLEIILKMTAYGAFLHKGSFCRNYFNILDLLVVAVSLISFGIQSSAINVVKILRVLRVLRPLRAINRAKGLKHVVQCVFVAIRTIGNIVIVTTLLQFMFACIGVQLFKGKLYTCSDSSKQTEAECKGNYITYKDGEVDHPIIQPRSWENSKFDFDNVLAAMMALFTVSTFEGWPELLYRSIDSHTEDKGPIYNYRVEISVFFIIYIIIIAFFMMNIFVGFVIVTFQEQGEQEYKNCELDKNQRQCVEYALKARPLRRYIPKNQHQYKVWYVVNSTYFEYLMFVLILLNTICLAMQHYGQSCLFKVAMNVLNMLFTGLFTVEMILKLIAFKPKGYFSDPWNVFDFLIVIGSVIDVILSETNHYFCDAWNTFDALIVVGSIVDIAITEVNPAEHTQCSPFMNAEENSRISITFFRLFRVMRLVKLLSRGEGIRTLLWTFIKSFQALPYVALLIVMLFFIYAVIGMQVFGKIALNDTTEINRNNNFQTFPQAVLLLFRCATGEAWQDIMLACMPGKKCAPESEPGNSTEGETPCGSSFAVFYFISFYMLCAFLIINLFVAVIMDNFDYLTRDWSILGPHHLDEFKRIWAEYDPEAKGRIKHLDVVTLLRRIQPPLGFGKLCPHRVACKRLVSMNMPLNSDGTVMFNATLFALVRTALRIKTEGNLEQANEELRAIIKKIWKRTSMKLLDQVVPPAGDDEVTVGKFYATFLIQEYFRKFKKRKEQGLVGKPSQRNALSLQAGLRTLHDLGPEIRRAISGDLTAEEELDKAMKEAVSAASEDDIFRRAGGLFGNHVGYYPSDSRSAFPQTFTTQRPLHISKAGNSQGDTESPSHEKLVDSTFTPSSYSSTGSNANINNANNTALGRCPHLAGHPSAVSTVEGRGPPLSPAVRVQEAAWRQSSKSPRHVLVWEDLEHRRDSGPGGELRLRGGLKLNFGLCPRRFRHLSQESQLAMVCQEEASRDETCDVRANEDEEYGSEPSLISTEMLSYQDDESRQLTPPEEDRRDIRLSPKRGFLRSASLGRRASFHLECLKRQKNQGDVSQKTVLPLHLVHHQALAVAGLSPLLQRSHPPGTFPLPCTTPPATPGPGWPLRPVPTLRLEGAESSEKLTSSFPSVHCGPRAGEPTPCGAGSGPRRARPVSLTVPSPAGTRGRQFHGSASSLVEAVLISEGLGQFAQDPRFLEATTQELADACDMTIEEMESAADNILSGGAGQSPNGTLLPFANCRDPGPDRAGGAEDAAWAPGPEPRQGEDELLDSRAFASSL", "assay": "Radioligand binding assay: inhibition of 3H-nitrendipine binding to microsomes", "conditions": "200 PM 3H-nitrendipine, 25° C., 30 minutes, pH 7.4, read-out: ID50, inhibition of binding of 3H-nitrendipine to microsomes (converted)", "source_text": "The progress of the cultivation and the amount of Leualacin produced as the culture proceeds can be determined by a radio ligand binding assay method, that is, for example, the method of […] and R. E. Oswald [Journal of Biological Chemistry, 260, 8456-8464 (1985)] which is based on the ability of Leualacin to inhibit the binding of ^3 H-nitrendipine to microsomes. High performance liquid chromatography may also be used. […] This experiment used a radioligand binding assay method, which is a modification of the method of […] and R. E. Oswald [Journal of Biological Chemistry, 260, 8456-8464 [(1985)], to determine the activity which inhibits the binding of ^3 H-nitrendipine to microsomes. The reaction was carried out at 25° C. for 30 minutes in 1 ml of a reaction mixture comprising 15 to 20 μg of a microsome fraction prepared from porcine heart, 200 PM ^3 H-nitrendipine (NEN-Dupont Pharmaceuticals, specific activity 88.1 Ci/mM), 50 mM NaOH-HEPES buffer (pH 7.4) and 0.5% by volume ethanol. (HEPES is N-2-hydroxyethylpiperazine-N'-2-ethanesulfonic acid). […] The glass-fibre filter was then put in a vial and OPTIFLUOR (Packard Co., Ltd.) was used as the scintillator and the radioactivity (as disintegrations per minute) was measured."}, "mice": {"system": "mice", "assay": "Acute toxicity", "assay_type": "in vivo", "conditions": "orally, 200 mg/kg", "protocol": "No toxicity was noted when Leualacin was orally administered to mice at a dose of 200 mg/kg, which is far in excess of any reasonable therapeutic dose."}, "[3]": {"system": "SHR (spontaneously hypertensive rats)", "assay": "Antihypertensive activity in SHR", "assay_type": "in vivo", "conditions": "conscious male SHR", "protocol": "Male SHR (spontaneously hypertensive rats), 15 weeks old, were anesthetized with sodium pentobarbital (50 mg/kg intraperitoneally). and a polyethylene cannula was inserted through the left femoral artery into the abdominal aorta. The other end of the cannula was led out of the body and fixed at the back of the neck. One week after the operation, when the animal had recovered from the stress of the surgery, the other end of the cannula was connected to a blood pressure transducer, which was constructed according to the directions of Laffan et al. [Laffan, P. J., Peterson A., Hitch S. W. and Jeunelot C., Cardiovascular Res. 6, 319-324 (1972)], but with slight modifications. The blood pressure and heart rate of the conscious and unstressed SHR were measured. After the blood pressure and the heart rate had stabilised for more than one hour, the test drug was administered by gavage. After administration of the test sample, the blood pressure and the heart rate were measured every 15 minutes over a […] is shown in Table 2."}}}
{"compound": "CC(C)CC1NC(=O)C(CC(C)C)OC(=O)CCNC(=O)C(Cc2ccccc2)N(C)C(=O)C(CC(C)C)OC1=O", "note": "(centres unmarked) [Leualacin, 11-benzyl-2,5,8-triisobutyl-10-methyl-1,7-dioxa-4,10,13-triazacyclohexadec ane-3,6,9,12,16-pentone]", "values": [{"measurement": "Antagonizing rate (%)", "setting": "tenia caecum; Leualacin 10^-6 g/ml", "result": 97, "unit": "%"}, {"measurement": "Antagonizing rate (%)", "setting": "tenia caecum; Leualacin 10^-7 g/ml", "result": 73, "unit": "%"}, {"measurement": "Antagonizing rate (%)", "setting": "tenia caecum; Leualacin 10^-8 g/ml", "result": 22, "unit": "%"}, {"measurement": "Antagonizing rate (%)", "setting": "tenia caecum; Leualacin 10^-9 g/ml", "result": 0, "unit": "%"}, {"measurement": "Description", "setting": "[1]", "result": "neutral, fat-soluble"}, {"measurement": "Solubility in organic solvents", "setting": "[1]; methanol, acetone, chloroform and ethyl acetate", "result": "Soluble"}, {"measurement": "Solubility in water", "setting": "[1]; water", "result": "insoluble"}, {"measurement": "IC50", "setting": "[2]", "result": 1.73, "unit": "µM"}, {"measurement": "Acute toxicity", "setting": "mice", "result": "No toxicity"}, {"measurement": "Decrease of blood pressure (mmHg)", "setting": "[3]; 100 μg/kg by gavage", "result": 44, "unit": "mmHg"}, {"measurement": "Decrease of blood pressure (mmHg)", "setting": "[3]; 300 μg/kg by gavage", "result": 57, "unit": "mmHg"}]}
